Test results reported in US8598227B2, “Epoprostenol formulation and method of making thereof” (Actelion Pharmaceuticals Ltd., priority 2006, dated 2013).

What was measured:
[1] = Solution stability of Epoprostenol in presence of 50 mg/ml of arginine; type: physicochemical; conditions: 50 mg/ml arginine
Experimental: A solution of epoprostenol and 50 mg/ml of arginine was prepared and the stability of this solution at 5° C. was determined. The resulting data are presented in the Table 4: Stability of the same formulation was also conducted at pH 11.2; and the data are summarized in the Table 5 below: […]

[2] = Dilution stability of reconstituted lyophile diluted to 10 μg/ml in IV fluids; type: physicochemical
Experimental: Dilution studies were also conducted to determine whether the formulations of the present invention are suitable for IV infusion at room temperature. The stability studies were conducted at 25° C. and 30° C. to mimic the temperatures during the infusion over a 24 hour period in various large volume parenteral solutions.
To this end, the stability of the epoprostenol lyophile reconstituted and diluted to 10 μg/ml in normal saline was stability monitored for 48 hours at 25° C. and 30° C. Dilution stability of all three primary formulation batches was conducted in normal saline at 25° C. and 30° C. In addition to these studies, dilution stability studies on one lot of primary formulation batch were conducted at 25° C. and 30° C. in 5% Dextrose (D5W), WFI (in-house) and lactated Ringer's solution.
For the dilution studies, each vial was reconstituted with 5 ml of the diluent. The clear solution was transferred into a 50 ml volumetric flask. The vial was rinsed with 5 ml of diluent three times and the rinses were transferred to the flask. The contents of the flask were further diluted with the diluent and made up to the mark with the diluent. The pH of the diluted solution was measured and recorded. The contents of the flask were held at the temperatures noted and analyzed at predetermined time intervals.

[3] = Solution stability of reconstituted lyophile (epoprostenol 0.5 mg/ml, arginine 50 mg/ml, pH 13.0); type: physicochemical; conditions: 50 mg/ml arginine
Experimental: In the next set of experiments, the pH of the solution containing epoprostenol and arginine was adjusted to 13.0 with sodium hydroxide, and lyophilized. Upon reconstitution of the lyophile with 1 ml of Water for Injection, the reconstituted solution contains 50 mg/ml arginine and 0.5 mg/ml epoprostenol. The pH of the solution is 13.0. The stability data are presented in Table 6 for 5° C. and Table 7 for 29° C. below: […]

[4] = cited from earlier work

CCCCC[C@H](O)/C=C/C1[C@H]2C/C(=C/CCCC(=O)[O-])OC2C[C@H]1O.[Na+] (stereo partly drawn) [Epoprostenol, (5Z,9(alpha),11(alpha),13E,15S)-6,9-epoxy-11,15-dihydroxyprosta-5,13-dien-1-oic acid]
% Assay of Epoprostenol by Area ([1]; pH 11.2, 5 ± 1° C., 4.0 HRS): 99.5%
Area % of 6-keto et al. impurities ([1]; pH 11.2, 5 ± 1° C., 4.0 HRS): 0.28%
% Assay of Epoprostenol by Area ([1]; pH 11.2, 5 ± 1° C., 7.0 HRS): 99.0%
Area % of 6-keto et al. impurities ([1]; pH 11.2, 5 ± 1° C., 7.0 HRS): 0.39%
% Assay of Epoprostenol by Area ([1]; pH 11.2, 5 ± 1° C., 10.0 HRS): 98.6%
Area % of 6-keto et al. impurities ([1]; pH 11.2, 5 ± 1° C., 10.0 HRS): 0.53%
% Assay of Epoprostenol by Area ([1]; pH 11.2, 5 ± 1° C., 11.5 HRS): 98.3%
Area % of 6-keto et al. impurities ([1]; pH 11.2, 5 ± 1° C., 11.5 HRS): 0.57%
% Assay of Epoprostenol by Area ([1]; pH 11.2, 5 ± 1° C., 17.5 HRS): 97.3%
Area % of 6-keto et al. impurities ([1]; pH 11.2, 5 ± 1° C., 17.5 HRS): 0.80%
% Assay of Epoprostenol by Area ([1]; pH 11.2, 5 ± 1° C., Initial): 100.0%
loss in potency ([1]; pH 11.9, 5° C., at 53 hours): 1.4%
% Assay of Epoprostenol by Area ([1]; pH 11.9, 5 ± 1° C., 2 HRS): 99.9%
Area % of 6-keto et al. impurities ([1]; pH 11.9, 5 ± 1° C., 2 HRS): 0.19%
% Assay of Epoprostenol by Area ([1]; pH 11.9, 5 ± 1° C., 4 HRS): 99.8%
Area % of 6-keto et al. impurities ([1]; pH 11.9, 5 ± 1° C., 4 HRS): 0.19%
% Assay of Epoprostenol by Area ([1]; pH 11.9, 5 ± 1° C., 6 HRS): 99.8%
Area % of 6-keto et al. impurities ([1]; pH 11.9, 5 ± 1° C., 6 HRS): 0.21%
% Assay of Epoprostenol by Area ([1]; pH 11.9, 5 ± 1° C., 8 HRS): 99.7%
Area % of 6-keto et al. impurities ([1]; pH 11.9, 5 ± 1° C., 8 HRS): 0.22%
% Assay of Epoprostenol by Area ([1]; pH 11.9, 5 ± 1° C., 10 HRS): 99.6%
Area % of 6-keto et al. impurities ([1]; pH 11.9, 5 ± 1° C., 10 HRS): 0.23%
% Assay of Epoprostenol by Area ([1]; pH 11.9, 5 ± 1° C., 12.5 HRS): 99.6%
Area % of 6-keto et al. impurities ([1]; pH 11.9, 5 ± 1° C., 12.5 HRS): 0.25%
% Assay of Epoprostenol by Area ([1]; pH 11.9, 5 ± 1° C., 14.5 HRS): 99.6%
Area % of 6-keto et al. impurities ([1]; pH 11.9, 5 ± 1° C., 14.5 HRS): 0.26%
% Assay of Epoprostenol by Area ([1]; pH 11.9, 5 ± 1° C., 39 HRS): 99.5%
Area % of 6-keto et al. impurities ([1]; pH 11.9, 5 ± 1° C., 39 HRS): 0.63%
% Assay of Epoprostenol by Area ([1]; pH 11.9, 5 ± 1° C., 53 HRS): 98.6%
Area % of 6-keto et al. impurities ([1]; pH 11.9, 5 ± 1° C., 53 HRS): 1.15%
% Assay of Epoprostenol by Area ([1]; pH 11.9, 5 ± 1° C., 77 HRS): 92.7%
Area % of 6-keto et al. impurities ([1]; pH 11.9, 5 ± 1° C., 77 HRS): 2.05%
% Assay of Epoprostenol by Area ([1]; pH 11.9, 5 ± 1° C., 100 HRS): 92.5%
Area % of 6-keto et al. impurities ([1]; pH 11.9, 5 ± 1° C., 100 HRS): 2.10%
% Assay of Epoprostenol by Area ([1]; pH 11.9, 5 ± 1° C., 124 HRS): 92.5%
Area % of 6-keto et al. impurities ([1]; pH 11.9, 5 ± 1° C., 124 HRS): 2.25%
% Assay of Epoprostenol by Area ([1]; pH 11.9, 5 ± 1° C., Initial): 100.0%
Area % of 6-keto et al. impurities ([1]; pH 11.9, 5 ± 1° C., Initial): 0.15%
drug degraded ([2]; D5W, after 8 hours): approximately 84%
stability compared with normal saline ([2]; lactated Ringer's solution, 25° C. and 30° C.): comparable to that of normal saline
potency maintained ([2]; water, 30° C., for more than 18 hours): greater than 90%
loss of potency ([3]; pH 13.0, 5° C., over 480 hours): 3.4%
loss of potency on average ([3]; pH 13.0, 5° C., over 480 hours): 0.007 %/hour
% Assay of Epoprostenol by Area ([3]; pH 13.0, 5 ± 1° C., 14.5 Hours): 99.8%
Area % of 6-keto PGF et al. impurities ([3]; pH 13.0, 5 ± 1° C., 14.5 Hours): 0.20%
% Assay of Epoprostenol by Area ([3]; pH 13.0, 5 ± 1° C., 53 Hours): 98.8%
% Assay of Epoprostenol by Area ([3]; pH 13.0, 5 ± 1° C., 124 Hours): 98.0%
Area % of 6-keto PGF et al. impurities ([3]; pH 13.0, 5 ± 1° C., 124 Hours): 0.40%
% Assay of Epoprostenol by Area ([3]; pH 13.0, 5 ± 1° C., 148 Hours): 97.6%
Area % of 6-keto PGF et al. impurities ([3]; pH 13.0, 5 ± 1° C., 148 Hours): 0.45%
% Assay of Epoprostenol by Area ([3]; pH 13.0, 5 ± 1° C., 192 Hours): 97.3%
Area % of 6-keto PGF et al. impurities ([3]; pH 13.0, 5 ± 1° C., 192 Hours): 0.47%
% Assay of Epoprostenol by Area ([3]; pH 13.0, 5 ± 1° C., 240 Hours): 96.9%
Area % of 6-keto PGF et al. impurities ([3]; pH 13.0, 5 ± 1° C., 240 Hours): 0.61%
% Assay of Epoprostenol by Area ([3]; pH 13.0, 5 ± 1° C., 480 Hours): 96.6%
Area % of 6-keto PGF et al. impurities ([3]; pH 13.0, 5 ± 1° C., 480 Hours): 0.70%
% Assay of Epoprostenol by Area ([3]; pH 13.0, 5 ± 1° C., Initial): 100.0%
Area % of 6-keto PGF et al. impurities ([3]; pH 13.0, 5 ± 1° C., Initial): 0.16%
degradation ([3]; pH 13.0, 29° C., in 12 hours): 1.5%
% Assay of Epoprostenol by Area ([3]; pH 13.0, 29 ± 1° C., 1 HRS): 100.0%
Area % of 6-keto et al. impurities ([3]; pH 13.0, 29 ± 1° C., 1 HRS): 0.087%
% Assay of Epoprostenol by Area ([3]; pH 13.0, 29 ± 1° C., 5 HRS): 99.8%
Area % of 6-keto et al. impurities ([3]; pH 13.0, 29 ± 1° C., 5 HRS): 0.18%
% Assay of Epoprostenol by Area ([3]; pH 13.0, 29 ± 1° C., 7 HRS): 99.3%
Area % of 6-keto et al. impurities ([3]; pH 13.0, 29 ± 1° C., 7 HRS): 0.21%
% Assay of Epoprostenol by Area ([3]; pH 13.0, 29 ± 1° C., 8 HRS): 99.2%
Area % of 6-keto et al. impurities ([3]; pH 13.0, 29 ± 1° C., 8 HRS): 0.25%
% Assay of Epoprostenol by Area ([3]; pH 13.0, 29 ± 1° C., 9 HRS): 99.1%
Area % of 6-keto et al. impurities ([3]; pH 13.0, 29 ± 1° C., 9 HRS): 0.29%
% Assay of Epoprostenol by Area ([3]; pH 13.0, 29 ± 1° C., 10 HRS): 98.8%
Area % of 6-keto et al. impurities ([3]; pH 13.0, 29 ± 1° C., 10 HRS): 0.28%
% Assay of Epoprostenol by Area ([3]; pH 13.0, 29 ± 1° C., 11 HRS): 98.6%
Area % of 6-keto et al. impurities ([3]; pH 13.0, 29 ± 1° C., 11 HRS): 0.29%
% Assay of Epoprostenol by Area ([3]; pH 13.0, 29 ± 1° C., 12 HRS): 98.5%
Area % of 6-keto et al. impurities ([3]; pH 13.0, 29 ± 1° C., 12 HRS): 0.30%
% Assay of Epoprostenol by Area ([3]; pH 13.0, 29 ± 1° C., 13 HRS): 98.1%
Area % of 6-keto et al. impurities ([3]; pH 13.0, 29 ± 1° C., 13 HRS): 0.38%
% Assay of Epoprostenol by Area ([3]; pH 13.0, 29 ± 1° C., 14 HRS): 98.0%
Area % of 6-keto et al. impurities ([3]; pH 13.0, 29 ± 1° C., 14 HRS): 0.37%
% Assay of Epoprostenol by Area ([3]; pH 13.0, 29 ± 1° C., 15 HRS): 97.8%
Area % of 6-keto et al. impurities ([3]; pH 13.0, 29 ± 1° C., 15 HRS): 0.39%
% Assay of Epoprostenol by Area ([3]; pH 13.0, 29 ± 1° C., 24 HRS): 97.5%
Area % of 6-keto et al. impurities ([3]; pH 13.0, 29 ± 1° C., 24 HRS): 0.39%
% Assay of Epoprostenol by Area ([3]; pH 13.0, 29 ± 1° C., 36 HRS): 97.5%
Area % of 6-keto et al. impurities ([3]; pH 13.0, 29 ± 1° C., 36 HRS): 0.45%
% Assay of Epoprostenol by Area ([3]; pH 13.0, 29 ± 1° C., Initial): 100.0%
Area % of 6-keto et al. impurities ([3]; pH 13.0, 29 ± 1° C., Initial): 0.072%

N=C(N)NCCC[C@H](N)C(=O)O [arginine]
basic pKa [4]: 10.8
